Results taken from patent publication US8212014B2, “Artificial base pairs and uses thereof” (Riken, priority 2005, dated 2012).
Several values for one entry are separate records, joined by “and”; a condition that tells them apart may be missing. Equal values may be shown once. Read-outs that look alike come from different tables or passages of the source. One block for each molecule: values may come before it. [s] = deoxynucleotide carrying the publication's artificial base s, incorporated via its phosphoramidite; [v] = deoxynucleotide carrying the publication's artificial base v, incorporated via its phosphoramidite

Columns and labels:
[1] = FRET between s or v in 35-mer DNA and FAM-y or FAM-hx-y in 17-mer RNA (DNA/RNA duplexes); type: physicochemical; settings: for FRET with 17-mer RNA using excessive DNA probe: 10 molar equivalents of DNA against the 17-mer RNA
Source text: (§1) DNA containing an artificial base s or v was synthesized as described, for example, in WO 01/05801 or WO 2005/026187 by using a cyanoethylphosphoroamidite derivative of a nucleotide containing an artificial base s or v in accordance with the DNA chemical synthesis method well known in the art. The sequence of the chemically synthesized 35-mer DNA is as follows: 5′-CAN1N2N3[…]-3′ (SEQ ID NO: 20; DNA in which N1N2N3 is CTs or CTv is referred to as DNA35s1 or DNA35v1, respectively; DNA in which N1N2N3 is Css or Cvv is referred to as DNA35s2a or DNA35v2a, respectively; and DNA in which N1N2N3 is sTs or vTv is referred to as DNA35s2b or DNA35v2b, respectively). The resulting DNA was purified by gel electrophoresis.
17-mer RNA incorporating FAM-y or FAM-hx-y at the N′ position (5′-[…]′AGUG-3′; SEQ ID NO: 21) was prepared through T7 transcription using T7 RNA polymerase and a substrate of FAM-y or FAM-hx-y (FAM-yTP or FAM-hx-yTP). […] The reaction mixture was heated at 75° C. for 3 minutes and the 17-mer transcript was purified by gel electrophoresis.
(§2) Fluorescence spectra were measured in a buffer containing 10 mM sodium phosphate (pH 7.0), 100 mM NaCl and 0.1 mM EDTA. Emission spectra were recorded with an excitation wavelength of 350 nm for s and 360 nm for v, respectively. The emission spectral bandpass was set to 5 nm.
The 17-mer RNA site-specifically incorporating FAM-y or FAM-hx-y was hybridized with 35-mer DNA site-specifically containing one or two s or v bases (DNA35s1, 35s2a, 35S2b, 35v1, 35v2a or 35v2b) to measure emission spectra for the DNA/RNA duplex at different temperatures (20° C. and 70° C.).

[2] = target: T1, T7 RNA polymerase (Escherichia phage T7, UniProt P00573); settings: natural NTPs 1 mM, sTP 1 mM; for relative yield of full-length (17-mer) transcript: template DNA containing one unnatural base, natural-base template set to 100%; for full-length transcript formation: template containing two unnatural bases
Protocol: Transcription was performed in a 40 mM Tris-HCl (pH 8.0) buffer solution (20 μl) containing 24 mM MgCl2, 2 mM spermidine, 5 mM DTT and 0.01% Triton X-100, in the presence of 1 mM natural NTPs or 1 mM sTP, 2 μCi [γ-^32P]GTP, 2 μM template and 50 units of T7 RNA polymerase (Takara, Kyoto).
The use of [γ-^32P]GTP allowed determination of yields because the transcripts were labeled only at their 5′-end. After incubation at 37° C. for 3 hours, a dye solution (20 μl ) containing 10 M urea and 0.05% BPB was added to stop the reaction. The mixtures were each heated at 75° C. for 3 hours and the products were analyzed on a 20% polyacrylamide-7 M urea gel.
These templates were used to effect transcription for 3 hours, and the transcripts whose 5′-end was labeled with [γ-^32P]GTP were analyzed on a gel. […] The transcripts are labeled with [γ-^32P]GTP at their 5′-end. The relative yield of each transcript was determined in comparison with the yield of a transcript from a template composed only of natural bases, which was set to 100%. Each yield was averaged from 3 to 4 data sets.

[3] = Excitation and fluorescence spectra of the fluorescent bases; type: physicochemical; settings: for fluorescence wavelength, center: excited at the stated excitation wavelength
[4] = Steady-state fluorescence emission of single-stranded DNAs containing s or v; type: physicochemical; settings: single-stranded 35-mer DNA with two artificial bases
Source text: as §1, §2

[5] = target: T1, T7 RNA polymerase; settings: 1 mM yTP; template composed only of natural bases (Entry No. 10)
Protocol: T7 RNA polymerase-mediated transcription reaction was accomplished in a reaction solution containing 40 mM Tris-HCl buffer (pH 8.0), 8 mM MgCl2, 2 mM spermidine, 5 mM DTT, 0.01% Triton X-100, 2 μCi [α-^32P]ATP or 2 μCi [α-^32P]GTP or 2 μCi [α-^32P]CTP or 2 μCi [α-^32P]UTP, 1 mM NTPs, 0-1 mM sTP, 0-1 mM yTP, 0.5 μM template DNA, and 50 units of T7 RNA polymerase (Takara). The transcript was purified by electrophoresis on a 15% polyacrylamide-7 M urea gel, eluted from the gel and then collected by ethanol precipitation in the presence of tRNA (0.05 OD). This sample was dissolved in 10 μl sterilized water, and the resulting solution (8.5 μl) was provided for complete digestion with RNase T2. To the solution (8.5 μl), RNase T2 (1.5 μl, 0.5 U/μl) was added and reacted at 37° C. for 2 hours. A part of this solution was spotted on a TLC plate (Merck, 10 cm×10 cm) and developed two-dimensionally. The developing solutions used for the first and second dimensions were isobutyric acid:concentrated aqueous ammonia:water=66:1:33 (v/v/v) and 2-propanol:hydrochloric acid:water=65:10:25 (v/v/v), respectively.
In this technique, upon incorporation of a radioactive substrate, a nucleotide located at the 5′-side of the substrate can be detected on two-dimensional TLC. […]

[6] = target: T1, T7 RNA polymerase
Protocol: In this example, to study the selectivity of s-Pa base pair during transcription, composition analysis was performed on nucleotides in the full-length (17-mer) transcripts obtained by transcription from Pa, z and natural templates. The transcripts were each internally labeled with any of [α-^32P]UTP, [α-^32P]ATP or [α-^32]GTP, and these transcripts were completely digested with RNase T2 into a nucleoside 3′-phosphate form. The resulting labeled nucleotides were analyzed by 2D-TLC (FIG. 3), and the spots were quantified for each nucleoside 3′-monophosphate (Table 1).
More specifically, transcription was performed in 40 mM Tris-HCl (pH 8.0) buffer (20 μl) containing 24 mM MgCl2, 2 mM spermidine, 5 mM DTT and 0.01% Triton X-100, in the presence of 10 mM GMP, 1 mM natural NTPs (1 mM, N=A, G, C, U), 0, 1 or 3 mM sTP, 2 μCi [γ-^32P]UTP, [γ-^32P]ATP or [γ-^32P]GTP (Amersham), 2 μM template DNA, and 50 units of T7 RNA polymerase (Takara) (Non-patent Documents 14 and 15). After incubation for 3 hours at 37° C., a dye solution was added to stop the transcription.
This mixture was heated at 75° C. for 3 hours and then electrophoresed on a 15% polyacrylamide-7 M urea gel. The full-length product was eluted from the gel and 0.05 A260 units of E. coli tRNA was then added thereto, followed by ethanol precipitation. The transcript was digested at 37° C. for 2 hours with 0.075 U/μl RNase T2 in 15 mM sodium acetate buffer (pH 4.5). […] The digestion products were analyzed by 2D-TLC using a Merck HPTLC plate (100×100 mm, Merck, Darmstadt, Germany). The developing solvents used for the first and second dimensions were isobutyric acid/NH4OH/H2O (66:1:33 v/v/v) and isopropyl alcohol/HCl/H2O (70:15:15 v/v/v), respectively. The products on the TLC plate were analyzed with a bio-imaging analyzer. Each spot was quantified by averaging from 3 to 9 data sets.

T1 sequence (P00573 whole entry): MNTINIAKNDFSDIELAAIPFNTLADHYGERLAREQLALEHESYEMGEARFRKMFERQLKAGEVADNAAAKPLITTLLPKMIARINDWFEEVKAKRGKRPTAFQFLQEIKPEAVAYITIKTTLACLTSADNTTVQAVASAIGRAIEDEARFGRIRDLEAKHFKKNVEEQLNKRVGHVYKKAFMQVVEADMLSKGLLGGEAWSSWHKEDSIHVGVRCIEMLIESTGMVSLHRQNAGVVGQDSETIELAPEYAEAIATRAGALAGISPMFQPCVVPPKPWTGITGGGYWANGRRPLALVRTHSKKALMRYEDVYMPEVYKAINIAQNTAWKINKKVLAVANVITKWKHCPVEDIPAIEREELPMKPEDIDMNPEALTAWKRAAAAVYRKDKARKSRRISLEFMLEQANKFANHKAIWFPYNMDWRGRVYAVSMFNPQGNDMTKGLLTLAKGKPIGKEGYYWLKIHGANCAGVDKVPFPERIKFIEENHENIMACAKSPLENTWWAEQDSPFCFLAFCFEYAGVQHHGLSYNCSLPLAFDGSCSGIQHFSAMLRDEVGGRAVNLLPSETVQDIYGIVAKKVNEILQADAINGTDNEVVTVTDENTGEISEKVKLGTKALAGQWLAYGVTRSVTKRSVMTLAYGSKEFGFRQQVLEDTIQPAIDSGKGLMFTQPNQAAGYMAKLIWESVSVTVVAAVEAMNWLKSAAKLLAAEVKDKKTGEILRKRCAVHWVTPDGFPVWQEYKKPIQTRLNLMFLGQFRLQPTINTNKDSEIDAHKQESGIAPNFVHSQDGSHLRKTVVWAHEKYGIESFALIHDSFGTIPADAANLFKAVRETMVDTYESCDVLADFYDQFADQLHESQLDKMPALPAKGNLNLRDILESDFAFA

Molecule: DNA35s1: 35-mer DNA (SEQ ID NO: 20) in which N1N2N3 is CTs (DNA CACTNCTCGGGATTCCCTATAGTGAGTCGTATTAT; DNA, [s] at 5, backbone, methylation of C and the base at N not given here)
- FRET with 17-mer RNA using excessive DNA probe [1]: completely buried in the background fluorescence
- FRET in duplex with 17-mer RNA incorporating FAM-y or FAM-hx-y ([1]; 20° C.): FRET occurred
- FRET in duplex with 17-mer RNA incorporating FAM-y or FAM-hx-y ([1]; duplex denatured at 70° C.): FRET was significantly reduced

Molecule: 2-formyl-1H-pyrrol-1-yl group [Pa]
- relative yield of full-length (17-mer) transcript [2]: 92%
- full-length transcript formation [2]: full-length products were obtained

- excitation wavelength (maximum) [3]: 363 nm
- fluorescence wavelength, center [3]: 461 nm
Molecule: Nc1nc(-c2nccs2)c2nc[nH]c2n1 [v, 2-amino-6-(2-thiazolyl)-9H-purin-9-yl group]

Molecule: DNA35v1: 35-mer DNA (SEQ ID NO: 20) in which N1N2N3 is CTv (DNA CACTNCTCGGGATTCCCTATAGTGAGTCGTATTAT; DNA, [v] at 5, backbone, methylation of C and the base at N not given here)
- FRET with 17-mer RNA using excessive DNA probe [1]: completely buried in the background fluorescence
- FRET in duplex with 17-mer RNA incorporating FAM-y or FAM-hx-y ([1]; 20° C.): FRET occurred
- FRET in duplex with 17-mer RNA incorporating FAM-y or FAM-hx-y ([1]; duplex denatured at 70° C.): FRET was significantly reduced

Molecule: DNA35s2a: 35-mer DNA (SEQ ID NO: 20) in which N1N2N3 is Css (DNA CACNNCTCGGGATTCCCTATAGTGAGTCGTATTAT; DNA, [s] at 4, 5, backbone, methylation of C and the base at N not given here)
- fluorescence intensity of single-stranded DNA [4]: significantly decreased
- FRET with 17-mer RNA using excessive DNA probe [1]: FRET was clearly observed
- FRET in duplex with 17-mer RNA incorporating FAM-y or FAM-hx-y ([1]; 20° C.): FRET occurred efficiently

Molecule: DNA35v2a: 35-mer DNA (SEQ ID NO: 20) in which N1N2N3 is Cvv (DNA CACNNCTCGGGATTCCCTATAGTGAGTCGTATTAT; DNA, [v] at 4, 5, backbone, methylation of C and the base at N not given here)
- fluorescence intensity of single-stranded DNA [4]: significantly decreased
- FRET with 17-mer RNA using excessive DNA probe [1]: FRET was clearly observed
- FRET in duplex with 17-mer RNA incorporating FAM-y or FAM-hx-y ([1]; 20° C.): FRET occurred efficiently

Molecule: 2-oxo-1,3-dihydroimidazol-1-yl group [reference compound]
- relative yield of full-length (17-mer) transcript [2]: 35%
- full-length transcript formation [2]: no full-length transcript was obtained

- excitation wavelength (maximum) [3]: 325 nm
- fluorescence wavelength, center [3]: 381 nm
Molecule: c1csc(-c2ncnc3[nH]cnc23)c1 [s′, 6-(2-thienyl)-9H-purin-9-yl group]

Molecule: O=c1[nH]cccc1C1OC(COP(=O)(O)OP(=O)(O)OP(=O)(O)O)C(O)C1O (stereo not shown) [yTP]
- incorporation of yp opposite natural template bases [5]: a slight amount of yp was incorporated

Molecule: Nc1nc(-c2cccs2)c2ncn([C@@H]3O[C@H](COP(=O)(O)OP(=O)(O)OP(=O)(O)O)[C@@H](O)[C@H]3O)c2n1 [sTP, 2-amino-6-(2-thienyl)-9-(1-β-D-ribofuranosyl)purine 5′-triphosphate]
- misincorporation of sTP opposite natural bases in the template ([6]; Table 1, Entry Nos. 4 and 6): no misincorporation

Molecule: Nc1nc(-c2cccs2)c2nc[nH]c2n1 [s, 2-amino-6-(2-thienyl)-9H-purin-9-yl group]
- excitation wavelength (maximum) [3]: 352 nm and 299 nm
- fluorescence wavelength, center [3]: 434 nm
- quantum yield of the fluorescence ([3]; pH 7.0): 0.41
- selectivity of s incorporation into RNA opposite Pa in the template DNA ([6]; template containing one Pa base, sTP 1 mM (Table 1, Entry No. 1)): 97%
- selectivity of s incorporation at the first position ([6]; template containing two Pa bases): 95%
- selectivity of s incorporation at the second position ([6]; template containing two Pa bases, sTP 1 mM): 84-87%
- selectivity of s incorporation at the second position ([6]; template containing two Pa bases, sTP 3 mM): 89-93%

Molecule: DNA35s2b: 35-mer DNA (SEQ ID NO: 20) in which N1N2N3 is sTs (DNA CANTNCTCGGGATTCCCTATAGTGAGTCGTATTAT; DNA, [s] at 3, 5, backbone, methylation of C and the base at N not given here)
- fluorescence intensity of single-stranded DNA [4]: no significant decrease

Molecule: DNA35v2b: 35-mer DNA (SEQ ID NO: 20) in which N1N2N3 is vTv (DNA CANTNCTCGGGATTCCCTATAGTGAGTCGTATTAT; DNA, [v] at 3, 5, backbone, methylation of C and the base at N not given here)
- fluorescence intensity of single-stranded DNA [4]: no significant decrease
